Data as given in patent publication US4562275A, “Antitumor platinum complexes” (priority 1984, dated 1985).
“And” between values parts separate entries of the source, which are not always exact repeats. Equal values may be shown once.

Tests used:
[1] = test system: ferret; assay: Emetic effects (and lethality) in the ferret; format: in vivo, castrated male Fitch ferrets
Experimental: Selected complexes were evaluated for emetic effects in ferrets. […] The time to the first emetic episode (retching and expulsion of vomitus) and the number of episodes were recorded. […] Subsequent test doses were selected based on the emetic response and lethality of the initial dose.

[2] = test system: BDF1 mice; assay: Single-dose ip LD50 in BDF1 mice; format: in vivo, mouse; conditions: 30 days observation
Experimental: Single-dose ip LD50 values were determined in BDF1 mice for the indicated complexes.

[3] = test system: L1210 leukemia; assay: Antitumor activity vs transplantable L1210 leukemia (ip) in mice; format: in vivo, mouse; conditions: for Max % T/C: dying mice only; for OD (optimum dose): optimum dose from the L1210 test
From the text: The antitumor activities of the complexes provided by the present invention have been determined against L-1210 leukemia in the mouse and, for certain of the complexes, against other mouse tumor systems.
(§1) Results of antitumor testing against the transplantable mouse tumors L1210 leukemia, cisplatin-resistant L1210 leukemia, B16 melanoma, Madison 109 lung carcinoma and colon 26 carcinoma are shown below in Tables 1 and 2.
In Table 1 are shown the maximum % T/C values obtained for each platinum compound versus L1210 leukemia using both single and qd 1→5 dosing.
(§2) The methods used to evaluate the platinum complexes for antitumor activity and toxicity in animals are summarized below. These methods have been published elsewhere in more detail (Rose, et al. Cancer Treat. Rep. 66: 135, 1982; Florczyk, et al, Cancer Treat. Rep. 66: 187, 1982).
(§3) The parent line of L1210 leukemia (L1210) was maintained in DBA/2 mice by ip transplantation of 10^5 cells at weekly intervals. […] B16 malenoma (B16) was maintained by sc transplant in C57BL/6 mice every two weeks. Madison 109 lung carcinoma (M109) and colon 26 carcinoma (C26) were maintained by sc transplant in BALB/c mice every two weeks.
(§4) The level and route of tumor inoculum, host, group size, and drug treatment schedule and route for each tumor type are summarized below in Table 6. Each complex was evaluated initially against L1210 at 4 dose levels per schedule selected on the basis of lethality data provided by the Wadley Institute. In subsequent experiments with the other tumors the complexes were evaluated at a minimum of 3 dose levels selected on the basis of maximum tolerated levels in the L1210 experiments. Cisplatin-treated groups and a saline-treated (or untreated) tumor control group were included in each experiment.
(§5) The L1210 experiments were terminated on Day 30 whereas the B16, C26 and M109 experiments were terminated on Day 60 (some C26 experiments were terminated on Day 75). Mice alive at the termination day were autopsied and considered cured if no tumor was visible. […] A complex was considered active if it produced a % T/C value ≥125.

[4] = test system: BDF1 mice; assay: Deaths (D.14) in the BUN test in BDF1 mice; format: in vivo, mouse
[5] = test system: B16 melanoma; assay: Antitumor activity vs ip B16 melanoma in mice; format: in vivo, mouse; set-up: O.D.: unit not given here; conditions: for O.D.: ip B16 (3×; 9×); for Max. % T/C: ip B16 (3×; 9×): q4d × 3 or qd 1-9, ip, dying mice only; for Ratio of Max. % T/C Complex/cDDP: ip B16, relative to concomitant cisplatin
From the text: as §2, §3
The level and route of tumor inoculum, host, group size, and drug treatment schedule and route for each tumor type are summarized below in Table 6. Each complex was evaluated initially against L1210 at 4 dose levels per schedule selected on the basis of lethality data provided by the Wadley Institute.
as §5

[6] = test system: L1210/CDDP (cisplatin resistant line of L1210 leukemia); assay: Antitumor activity vs cisplatin-resistant L1210 leukemia (L1210/CDDP) in mice; format: in vivo, mouse; conditions: for O.D. (optimal dose) / Cures/total: Day 1; for Max % T/C: Day 1, dying mice only
From the text: Results of antitumor testing against the transplantable mouse tumors L1210 leukemia, cisplatin-resistant L1210 leukemia, B16 melanoma, Madison 109 lung carcinoma and colon 26 carcinoma are shown below in Tables 1 and 2. […]
as §2, §3, §4, §5

[7] = test system: BDF1 mice; assay: Nephrotoxicity: effect on blood urea nitrogen (BUN) in BDF1 mice; conditions: for BUN↑, Mouse: effect relative to cisplatin
Experimental: The other compounds were in such short supply that they were tested for effects on BUN values using the optimum dose (O.D.) from the L1210 test for dose selection.
The toxicity studies were done in male BDF1 mice (25-29 gm) and castrated male Fitch ferrets (1-1.5 kg).
The complexes that were active against L1210 were evaluated for nephrotoxicity by determining their effects on blood urea nitrogen (BUN) levels in mice. Groups of 40-50 mice/experiment were bled from the retro-orbital plexus and individual BUN values determined by a modified urease method using a Centrifichem System 400. The test complex, or saline for controls, was given at several dose levels (5-10 mice/dose) in single ip injections. The highest dose of the complex usually corresponded to its LD50 value or 1.5 times its optimal single dose in the L1210 experiment. At least two lower doses were included to evaluate dose-related effects. The BUN values were measured 4 and 7 days after dosing. BUN values ≥30 mg% were considered indicative of drug-induced nephrotoxicity.

[8] = test system: C26 carcinoma; assay: Antitumor activity vs ip C26 (colon 26) carcinoma in mice; format: in vivo, mouse; set-up: O.D.: unit not given here; conditions: for O.D.: ip C26 (2×; 4×); for Max. % T/C: ip C26 (2×; 4×): q3d × 2 or qd 1-4, ip, dying mice only; for Ratio of Max. % T/C Complex/cDDP: ip C26, relative to concomitant cisplatin
From the text: as §1, §2, §3, §4, §5
8 q3d^b × 2 or qd 1-4, ip

[9] = Solubility stated in the preparation examples
[10] = test system: M109 carcinoma; assay: Antitumor activity vs ip M109 (Madison 109 lung) carcinoma in mice; format: in vivo, mouse; set-up: O.D.: unit not given here; conditions: for O.D.: ip M109 (2×; 4×); for Max. % T/C: ip M109 (2×; 4×): q3d × 2 or qd 1-4, ip, dying mice only; for Ratio of Max. % T/C Complex/cDDP: ip M109, relative to concomitant cisplatin
From the text: as §1, §2, §3, §4, §5
8 q3d^a × 2 or qd 1-4, ip

[11] = L1210, single dose Day 1, ip, (a), (b) determinations
[12] = L1210, single dose Day 1, ip, dose giving the Max % T/C, same order

Row | Molecule | LD50 [2] | O.D. (optimal dose) ([3]; L1210, QD 1 → 5, ip) | Max % T/C ([3]; L1210, QD 1 → 5, ip) | Max % T/C [3, 11] | O.D. (optimal dose) [3, 12] | OD (optimum dose) [3] | Deaths D.14 ([4]; 17 mg/kg ip) | O.D. [5] | Max. % T/C [5] | O.D. (optimal dose) [6] | Max % T/C [6] | Incidence of BUN > 30 mg % ([7]; 17 mg/kg ip) | BUN↑, Mouse [7] | O.D. [8] | Max. % T/C [8] | Ratio of Max. % T/C Complex/cDDP [8] | Solubility in water [9] | Deaths D.14 ([4]; 30 mg/kg ip) | O.D. [10] | Max. % T/C [10] | further results
1 | N[C@@H]1CCCC[C@H]1N.[O]=[Mn](=[O])([O-])[O-].[Pt+2] [Example 8, manganato trans(-)-1,2-diaminocyclohexane platinum(II)] | 31 mg/kg/ip | 2.5 mg/kg/inj | 293% | 214% and 186% | 20 mg/kg/inj and 18 mg/kg/inj | 20 mg/kg/ip | 1/10 | 2 | 160% | 8 mg/kg/inj | 181% | 0/9 | 0 |  |  |  |  |  |  |  | Emesis Episodes ([1]; 16 mg/kg iv): 15; Emesis onset in responding animals ([1]; 16 mg/kg iv): 16 min; No. With Emesis/No. tested ([1]; 16 mg/kg iv, 6 h observation): 1/1; acute lethality ([1]; ferret, 16 mg/kg iv): 44 min; Lethal dose ([1]; ferret, doses marked * = Lethal dose): 16 mg/kg iv; Deaths D.14 ([4]; 23 mg/kg ip): 3/10; Deaths D.14 ([4]; 31 mg/kg ip): 2/10; Incidence of BUN > 30 mg % ([7]; 23 mg/kg ip): 0/7; Incidence of BUN > 30 mg % ([7]; 31 mg/kg ip): 0/8
2 | CC(C)CC(C)(N)CN.[O-]B([O-])O.[Pt+2] (stereo not shown) [Example 10, borato 1,2-diamino-2,4-dimethylpentane platinum(II)] | 30 mg/kg/ip | 10 mg/kg/inj | 236% | 171% and 225% | 20 mg/kg/inj and 24 mg/kg/inj | 10-20 mg/kg/ip | 0/10 | 9 | 174% | 24 mg/kg/inj | 307% | 0/10 | < | 8 | 100% | .69 | soluble | 1/10 | 5 | 74% | Solubility in methanol ([9]; methanol): soluble; Deaths D.14 ([4]; 22.5 mg/kg ip): 0/10; Ratio of Max. % T/C Complex/cDDP [10]: .48; Ratio of Max. % T/C Complex/cDDP [5]: .82; Cures/total [6]: 5/6; Incidence of BUN > 30 mg % ([7]; 22.5 mg/kg ip): 1/10; Incidence of BUN > 30 mg % ([7]; 30 mg/kg ip): 7/10
3 | phosphonoacetato trans(-)-1,2-diaminocyclohexane platinum(II) [Example 11] | 20 mg/kg/ip | 10 mg/kg/inj | 207% | 179% and 225% | 20 mg/kg/inj and 24 mg/kg/inj | 20 mg/kg/ip |  | 9 | 206% | 24 mg/kg/inj | 240% |  |  | 8 | 116% | .81 | soluble | 0/5 | 10 | 114% | Solubility in alcohol ([9]; alcohol): insoluble; Deaths D.14 ([4]; 20 mg/kg ip): 0/5; Ratio of Max. % T/C Complex/cDDP [10]: .74; Ratio of Max. % T/C Complex/cDDP [5]: .97; Cures/total [6]: 2/6; Incidence of BUN > 30 mg % ([7]; 20 mg/kg ip): 0/5; Incidence of BUN > 30 mg % ([7]; 30 mg/kg ip): 0/5
